Results as given in BindingDB's records for doi:10.1021/acs.jmedchem.9b00068 (University of Michigan, 2019).

Tests used:
[1] = target: T1, Eukaryotic translation initiation factor 4E (Homo sapiens, UniProt P06730); experiment: Binding affinity to N-terminal 10His-tagged m7GDP-bound recombinant human eIF4E expressed in Escherichia coli BL21 (DE3) cells assessed as dissociation constant at 25 degreeC by surface plasmon resonance analysis
[2] = target: T1, Eukaryotic translation initiation factor 4E; experiment: Binding affinity to N-terminal 10His-tagged m7GDP-bound recombinant human eIF4E expressed in Escherichia coli BL21 (DE3) cells assessed as dissociation constant at 25 degreeC in presence 225 to 1000 mM of NaCl by surface plasmon resonance analysis

T1 sequence (P06730 whole entry): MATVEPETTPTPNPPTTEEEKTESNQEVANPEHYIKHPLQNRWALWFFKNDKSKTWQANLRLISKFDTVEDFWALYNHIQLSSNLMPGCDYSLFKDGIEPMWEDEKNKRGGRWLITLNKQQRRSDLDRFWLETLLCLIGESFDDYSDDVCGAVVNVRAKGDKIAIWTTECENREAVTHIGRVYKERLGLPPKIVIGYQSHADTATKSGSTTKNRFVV

Row | Kd [1] [nM] | Compound | Kd [2] [nM]
1 | 123 | Ac-KKRYSREQLLGL-NH2 | 
2 |  | CC(=O)N[C@@H](CCCCN)C(=O)N[C@@H](CCCCN)C(=O)N[C@@H](CCCNC(=N)N)C(=O)N[C@@H](Cc1ccc(O)cc1)C(=O)N[C@@H](CC(=O)O)C(=O)N[C@@H](CCCNC(=N)N)C(=O)N[C@@H](CCC(=O)O)C(=O)N[C@@H](Cc1ccccc1)C(=O)N[C@@H](CC(C)C)C(=O)N[C@@H](CC(C)C)C(=O)NCC(=O)N[C@@H](Cc1ccccc1)C(=O)N[C@@H](CCC(N)=O)C(=O)N[C@@H](Cc1ccccc1)C(N)=O | 0.046
